# Test results taken from ChEMBL document CHEMBL4011591, “Discovery and pharmacological evaluation of a novel series of adamantyl cyanoguanidines as P2X7 receptor antagonists” (Eur J Med Chem, 2017).
# Key:
# P2X purinoceptor 7 [1] = biological target: T1, P2X purinoceptor 7 (Homo sapiens, UniProt Q99572); assay: Antagonist activity at P2X7 receptor in human THP1 cells assessed as inhibition of BzATP-induced YO-PRO-1 Iodide uptake measured every 30 secs for 1 hr by fluorescence assay; format: cell-based
# T1 sequence (Q99572 whole entry): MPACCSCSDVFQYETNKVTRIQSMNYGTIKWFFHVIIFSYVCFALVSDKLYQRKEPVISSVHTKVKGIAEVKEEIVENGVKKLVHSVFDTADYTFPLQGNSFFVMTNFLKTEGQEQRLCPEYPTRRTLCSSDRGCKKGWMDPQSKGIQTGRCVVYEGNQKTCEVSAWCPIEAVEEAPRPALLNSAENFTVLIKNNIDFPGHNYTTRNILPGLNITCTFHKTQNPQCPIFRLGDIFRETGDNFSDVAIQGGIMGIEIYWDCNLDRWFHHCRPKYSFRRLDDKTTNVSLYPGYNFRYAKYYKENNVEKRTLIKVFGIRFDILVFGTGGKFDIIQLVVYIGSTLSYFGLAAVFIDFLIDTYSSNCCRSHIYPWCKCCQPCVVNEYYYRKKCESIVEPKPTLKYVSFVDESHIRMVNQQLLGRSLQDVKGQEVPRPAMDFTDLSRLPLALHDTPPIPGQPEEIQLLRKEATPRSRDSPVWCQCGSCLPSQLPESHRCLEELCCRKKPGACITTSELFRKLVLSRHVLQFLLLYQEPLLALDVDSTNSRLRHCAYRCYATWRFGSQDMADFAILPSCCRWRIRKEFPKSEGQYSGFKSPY
# P2X purinoceptor 7 [2] = biological target: T1, P2X purinoceptor 7; assay: Antagonist activity at P2X7 receptor in LPS-stimulated human THP1 cells assessed as inhibition of LPS/BzATP-induced IL-1beta release preincubated for 30 mins followed by BzATP addition measured after 30 mins by ELISA
# [3] = biological target: T2, P2X purinoceptor 7 (Homo sapiens) (UniProt Q99572); assay: Ratio of IC50 for P2X7 receptor in human THP1 cells assessed as inhibition of BzATP-induced YO-PRO-1 Iodide uptake to IC50 for P2X7 receptor in LPS-stimulated human THP1 cells assessed as inhibition of LPS/BzATP-induced IL-1beta release; format: cell-based
# T2 sequence (whole entry): T1 sequence (Q99572 whole entry)
# [4] = Half life in CD-1 mouse at 3 mg/kg, po administered as single dose via gavage by HPLC-MS/MS; format: ADME, organism-based; details: in vivo
smiles,measurement,setting,value
N#C/N=C(/NCc1ccccc1F)NCC12CC3CC(CC(C3)C1)C2,IC50,P2X purinoceptor 7 [1],501 nM
N#C/N=C(\NCC12CC3CC(CC(C3)C1)C2)Nc1cccnc1,IC50,P2X purinoceptor 7 [1],214 nM
N#C/N=C(/NCc1ccncc1)NCC12CC3CC(CC(C3)C1)C2,IC50,P2X purinoceptor 7 [1],447 nM
same,IC50,P2X purinoceptor 7 [2],389 nM
same,Ratio IC50,[3],1.2
N#C/N=C(\NCC12CC3CC(CC(C3)C1)C2)Nc1ccccn1,IC50,P2X purinoceptor 7 [1],> 10000 nM
N#C/N=C(\NCC12CC3CC(CC(C3)C1)C2)Nc1ccncc1,IC50,P2X purinoceptor 7 [1],417 nM
N#C/N=C(/NCc1cccc(F)c1)NCC12CC3CC(CC(C3)C1)C2,IC50,P2X purinoceptor 7 [1],708 nM
same,IC50,P2X purinoceptor 7 [2],132 nM
same,Ratio IC50,[3],5.4
N#C/N=C(/NCCc1ccccc1)NCC12CC3CC(CC(C3)C1)C2,IC50,P2X purinoceptor 7 [1],4070 nM
N#C/N=C(/NCCc1ccccc1)NC12CC3CC(CC(C3)C1)C2,IC50,P2X purinoceptor 7 [1],> 10000 nM
COc1ccc(N/C(=N/C#N)NCC23CC4CC(CC(C4)C2)C3)cc1,IC50,P2X purinoceptor 7 [1],562 nM
COc1cccc(CN/C(=N/C#N)NCC23CC4CC(CC(C4)C2)C3)c1,IC50,P2X purinoceptor 7 [1],851 nM
c1cnc2cc3c(cc2n1)[C@@H]1CNC[C@H]3C1 [VARENICLINE],half-life,[4],1.4 h
COc1ccccc1N/C(=N/C#N)NCC12CC3CC(CC(C3)C1)C2,IC50,P2X purinoceptor 7 [1],51 nM
N#C/N=C(\NCC12CC3CC(CC(C3)C1)C2)Nc1cccc(F)c1,IC50,P2X purinoceptor 7 [1],186 nM
N#C/N=C(\NCCC12CC3CC(CC(C3)C1)C2)NCc1ccccc1,IC50,P2X purinoceptor 7 [1],3020 nM
COc1cccc(N/C(=N/C#N)NCC23CC4CC(CC(C4)C2)C3)c1,IC50,P2X purinoceptor 7 [1],58 nM
